Measured values reported in patent US11555042B2, “Macrocyclic compounds as TRK kinases inhibitors” (FOCHON BIOSCIENCES, LTD., priority 2018, dated 2023).

Assays:
[1] = test system: KM12 cells; assay: KM12 cells proliferation inhibition (MTS), mechanism-based assay for TRK; assay type: cell-based
From the text: (§1) MTS testing kit was purchased from Promega (Madison, Wis., USA). The RPMI-1640, Fetal bovine serum and Penicillin-Streptomycin were purchased from Gibco (San Francisco, Calif., USA). Dimethyl sulfoxide (DMSO) and Puromycin were purchased from Sigma (St. Louis., Mo., USA). Mouse interleukin-3 (IL-3) was purchased from Cell signaling Technology (Boston, Mass., USA).
To investigate whether a compound is able to inhibit the activity of TRK in cells, a mechanism-based assay using KM12 cells was developed. In this assay, inhibition of TRK was detected by the inhibition of KM12 cells proliferation. KM12 cells were cultured in culture flasks to 40-80% confluence in RPMI-1640 plus 10% fetal bovine serum. Cells were collected and plated onto 96-well plates at 1000 cells/well. Plates were incubated at 37° C., with 5% CO2 for 4 h. Compounds were added to the plates, the final compound concentrations were […], 123.5, 41.2, 13.7, 4.6 and 1.5 nM. Place plates at 37° C., with 5% CO2 for KM12 cells 72 h. 20 μl MTS/100 μl medium mixture solution were added to each well and incubate the plates for exactly 2 h. Stop the reaction by adding 25 μl 10% SDS per well. Measure absorbance at 490 nm and 650 nm (reference wavelength). IC50 was calculated using GraphPad Prism 5.0.

[2] = molecular target: T1, ETV6-TRKC-G623R (Homo sapiens, UniProt Q16288, G623R); assay: Engineered Ba/F3 cell proliferation inhibition (MTS), ETV6-TRKC-G623R; assay type: cell-based; settings: 72 h
T1 construct: fused on or other part: P41212 (Transcription factor ETV6)
From the text: as §1
To investigate whether a compound is able to inhibit the activity of TRK fusion mutation in cells, a mechanism-based assay using engineered Ba/F3 cell lines stably overexpressing oncogenic rearrangement or gene mutation of TRK (TPM3-TRKA, TPM3-TRKA-G595R, AFAP1-TRKB, ETV6-TRKC and ETV6-TRKC-G623R) were developed. In this assay, inhibition of TRK fusion mutation was detected by the cell proliferation inhibition of engineered Ba/F3 cells. Engineered Ba/F3 cells were cultured in culture flasks to 40-80% confluence in RPMI-1640 supplemented with 10% fetal bovine serum, 2 ug/mL puromycin. Cells were collected and plated onto 96-well plates at desired cell density (Ba/F3-TPM3-TRKA: 3×10^4/mL, Ba/F3-TPM3-TRKA-G595R: 1×10^5/mL, Ba/F3-AFAP1-TRKB: 1×10^5/mL, Ba/F3-ETV6-TRKC: 3×10^4/mL, Ba/F3-ETV6-TRKC-G623R: 3×10^4/mL). Plates were incubated at 37° C., with 5% CO2 for 4 h. Compounds were then added to the plates with the final compound concentrations of 10000, 3333, 1111, […], 123, 41.2, 13.7, 4.6 and 1.5 nM. Plates were incubated at 37° C., with 5% CO2 for 72 h. A mixture of 20 μl MTS/100 μl medium were added to each well and the plates were incubated at 37° C., with 5% CO2 for exactly 2 h. The reaction was stopped by adding 25 μl of 10% SDS per well. The absorbance was measured at 490 nm and 650 nm (reference wavelength). IC50 was calculated using GraphPad Prism 5.0 software.

T1 sequence (Q16288 whole entry G623R, the tested form may be a part): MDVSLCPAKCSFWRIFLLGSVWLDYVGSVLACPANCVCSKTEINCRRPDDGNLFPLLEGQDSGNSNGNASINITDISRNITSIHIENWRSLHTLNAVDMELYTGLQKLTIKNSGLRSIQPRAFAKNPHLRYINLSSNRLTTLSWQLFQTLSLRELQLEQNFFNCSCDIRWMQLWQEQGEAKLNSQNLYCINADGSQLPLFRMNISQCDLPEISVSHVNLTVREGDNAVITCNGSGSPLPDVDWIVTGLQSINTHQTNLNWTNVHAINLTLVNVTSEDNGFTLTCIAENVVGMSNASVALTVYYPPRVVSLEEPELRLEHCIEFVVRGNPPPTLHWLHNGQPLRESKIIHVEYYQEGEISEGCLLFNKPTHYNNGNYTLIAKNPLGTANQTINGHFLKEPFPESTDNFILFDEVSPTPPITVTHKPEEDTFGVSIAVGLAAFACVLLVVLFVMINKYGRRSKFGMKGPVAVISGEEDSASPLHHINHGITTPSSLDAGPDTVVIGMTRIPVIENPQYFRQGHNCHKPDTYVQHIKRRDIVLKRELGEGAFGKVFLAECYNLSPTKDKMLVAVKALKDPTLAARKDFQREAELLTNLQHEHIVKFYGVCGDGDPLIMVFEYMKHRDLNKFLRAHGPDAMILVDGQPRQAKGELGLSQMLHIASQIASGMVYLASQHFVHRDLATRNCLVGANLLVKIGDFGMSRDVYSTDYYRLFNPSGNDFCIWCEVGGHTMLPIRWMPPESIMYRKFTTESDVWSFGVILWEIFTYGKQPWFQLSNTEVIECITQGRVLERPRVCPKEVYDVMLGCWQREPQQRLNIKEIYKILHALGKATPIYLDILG

SMILES	IC50 ([1]; Homo sapiens, KM12, 72 h)	other results
C[C@@H]1CCc2ccc(F)cc2C23CC2CCN3c2ccc3ncc(n3n2)C(=O)N1 (single isomer, unassigned) [Example 33A]	1 nM	
C[C@@H]1CCc2ccc(F)cc2C23CC2CCN3c2ccc3ncc(n3n2)C(=O)N1 (single isomer, unassigned) [Example 33B]		IC50 ([1]; 72 h): 1 nM
C[C@@H]1COc2ccc(F)cc2C23CC2CCN3c2ccn3ncc(c3n2)C(=O)N1 (stereo partly drawn) [Example 1, (1^3E,1^4E,6R)-3^5-fluoro-6-methyl-4-oxa-2^2,7-diaza-1(5,3)-pyrazolo[1,5-a]pyrimidina-2(2,1)-azabicyclo[3.1.0]hexana-3(1,2)-benzenacyclooctaphan-8-one]	1 nM	
C[C@@H]1COc2ccc(F)cc2C2(CC2)Nc2ccn3ncc(c3n2)C(=O)N1 [Example 2, (R,3′E,4′E)-5′-fluoro-7′-methylspiro[cyclopropane-1,3′-5-oxa-2,8-diaza-1(5,3)-pyrazolo[1,5-a]pyrimidina-4(1,2)-benzenacyclononaphan]-9′-one]	1 nM	
C[C@H]1CNC(=O)c2cnn3ccc(nc23)NC2(CC2)c2cc(F)ccc2O1 [Example 4, (S,3′E,4′E)-5′-fluoro-6′-methylspiro[cyclopropane-1,3′-5-oxa-2,8-diaza-1(5,3)-pyrazolo[1,5-a]pyrimidina-4(1,2)-benzenacyclononaphan]-9′-one]	1 nM	
C[C@@H]1CCc2ncc(F)cc2C23CC2CCN3c2ccn3ncc(c3n2)C(=O)N1 (stereo partly drawn) [Example 5, (1^3E,1^4E,6R)-3^5-fluoro-6-methyl-2^2,7-diaza-1(5,3)-pyrazolo[1,5-a]pyrimidina-3(3,2)-pyridina-2(2,1)-bicyclo[3.1.0]hexanacyclooctaphan-8-one]	1 nM	
C[C@@H]1COc2ncc(F)cc2C23CC2CCN3c2ccn3ncc(c3n2)C(=O)N1 (stereo partly drawn) [Example 6, (1^3E,1^4E,6R)-3^5-fluoro-6-methyl-4-oxa-2^2,7-diaza-1(5,3)-pyrazolo[1,5-a]-pyrimidina-3(3,2)-pyridina-2(2,1)-bicyclo[3.1.0]hexanacyclooctaphan-8-one]	1 nM	
C[C@H]1CNC(=O)c2cnn3ccc(nc23)N2CCC3CC32c2cc(F)cnc2O1 (stereo partly drawn) [Example 7, (1^3E,1^4E,5S)-3^5-fluoro-5-methyl-4-oxa-2^2,7-diaza-1(5,3)-pyrazolo[1,5-a]pyrimidina-3(3,2)-pyridina-2(2,1)-bicyclo[3.1.0]hexanacyclooctaphan-8-one]	1 nM	
C[C@H]1CNC(=O)c2cnn3ccc(nc23)NC2(CC2)c2cc(F)cnc2O1 [Example 9, (S,3′E,4′E)-5′-fluoro-6′-methylspiro[cyclopropane-1,3′-5-oxa-2,8-diaza-1(5,3)-pyrazolo[1,5-a]pyrimidina-4(3,2)-pyridinacyclononaphan]-9′-one]	7 nM	
C[C@@H]1CCc2ncc(F)cc2C2(CC2)Nc2ccn3ncc(c3n2)C(=O)N1 [Example 10, (R,3′E,4′E)-5′-fluoro-7′-methylspiro[cyclopropane-1,3′-2,8-diaza-1(5,3)-pyrazolo[1,5-a]pyrimidina-4(3,2)-pyridinacyclononaphan]-9′-one]	1 nM	
C[C@@H]1CCc2ccc(F)cc2C23CC2CCN3c2ccn3ncc(c3n2)C(=O)N1 (stereo partly drawn) [Example 12A, (1^3E,1^4E,6R)-3^5-fluoro-6-methyl-2^2,7-diaza-1(5,3)-pyrazolo[1,5-a]pyrimidina-2(2,1)-bicyclo[3.1.0]hexana-3(1,2)-benzenacyclooctaphan-8-one]	1 nM	
C[C@@H]1CCc2ccc(F)cc2C23CC2CCN3c2ccn3ncc(c3n2)C(=O)N1 (stereo partly drawn) [Example 12B, (1^3E,1^4E,6R)-3^5-fluoro-6-methyl-2^2,7-diaza-1(5,3)-pyrazolo[1,5-a]pyrimidina-2(2,1)-bicyclo[3.1.0]hexana-3(1,2)-benzenacyclooctaphan-8-one]		IC50 ([1]; 72 h): 2 nM
C[C@@H]1COc2ccc(F)cc2C23CC2CCN3c2ccc3ncc(n3n2)C(=O)N1 (stereo partly drawn) [Example 13, (6R,E)-3^5-fluoro-6-methyl-4-oxa-2^2,7-diaza-1(6,3)-imidazo[1,2-b]pyridazina-2(2,1)-bicyclo[3.1.0]hexana-3(1,2)-benzenacyclooctaphan-8-one]	1 nM	
C[C@@H]1COc2ncc(F)cc2C23CC2CCN3c2ccc3ncc(n3n2)C(=O)N1 (stereo partly drawn) [Example 14, (6R,E)-3^5-fluoro-6-methyl-4-oxa-2^2,7-diaza-1(6,3)-imidazo[1,2-b]pyridazina-3(3,2)-pyridina-2(2,1)-bicyclo[3.1.0]hexanacyclooctaphan-8-one]	1 nM	
C[C@H]1CNC(=O)c2cnc3ccc(nn23)N2CCC3CC32c2cc(F)ccc2O1 (stereo partly drawn) [Example 32, (5S,E)-3^5-fluoro-5-methyl-4-oxa-2^2,7-diaza-1(6,3)-imidazo[1,2-b]pyridazina-2(2,1)-bicyclo[3.1.0]hexana-3(1,2)-benzenacyclo-octaphan-8-one]	1 nM	
C[C@H]1CNC(=O)c2cnc3ccc(nn23)N2CCC3CC32c2cc(F)cnc2O1 (stereo partly drawn) [Example 34, (5S,E)-3^5-fluoro-5-methyl-4-oxa-2^2,7-diaza-1(6,3)-imidazo[1,2-b]pyridazina-3(3,2)-pyridina-2(2,1)-bicyclo[3.1.0]-hexanacyclooctaphan-8-one]	1 nM	
C[C@@H]1CCc2ncc(F)cc2C23CC2CCN3c2ccc3ncc(n3n2)C(=O)N1 (stereo partly drawn) [Example 35, (6R,E)-3^5-fluoro-6-methyl-2^2,7-diaza-1(6,3)-imidazo[1,2-b]pyridazina-3(3,2)-pyridina-2(2,1)-bicyclo[3.1.0]hexanacyclo-octaphan-8-one]	1 nM	
C[C@@H]1CNC(=O)c2cnn3ccc(nc23)NC2(CC2)c2cc(F)cnc2O1 [Example 42, (R,3′E,4′E)-5′-fluoro-6′-methylspiro-[cyclopropane-1,3′-5-oxa-2,8-diaza-1(5,3)-pyrazolo[1,5-a]pyrimidina-4(3,2)-pyridina-cyclononaphan]-9′-one]	3 nM	
C[C@@H]1COc2ccc(F)cc2C2(CC2)N(C)c2ccc3ncc(n3n2)C(=O)N1 [Example 53, (7′R,E)-5′-fluoro-2′,7′-dimethylspiro-[cyclopropane-1,3′-5-oxa-2,8-diaza-1(6,3)-imidazo[1,2-b]pyridazina-4(1,2)-benzenacyclononaphan]-9′-one]	30 nM	
C[C@@H]1CCc2ccc(F)cc2C2(CC2)N(C)c2ccc3ncc(n3n2)C(=O)N1 [Example 56, (7′R,E)-5′-fluoro-2′,7′-dimethylspiro-[cyclopropane-1,3′-2,8-diaza-1(6,3)-imidazo[1,2-b]pyridazina-4(1,2)-benzenacyclononaphan]-9′-one]	3 nM	
O=C1NCCCOc2ncc(F)cc2[C@@]23C[C@@H]2CCN3c2ccn3ncc1c3n2 [Example 76, (1^3E,1^4E,2^1E,2^1R,2^5S)-3^5-fluoro-4-oxa-2^2,8-diaza-1(5,3)-pyrazolo[1,5-a]pyrimidina-3(3,2)-pyridina-2(2,1)-bicyclo[3.1.0]hexana-cyclononaphan-9-one]		IC50 [2]: 1 nM
O=C1NCC2(CC2)COc2ncc(F)cc2[C@@]23C[C@@H]2CCN3c2ccn3ncc1c3n2 [Example 79, (1′R,3′E,4′E,5′S)-5′-fluorospiro-[cyclopropane-1,6′-4-oxa-2^2,8-diaza-1(5,3)-pyrazolo[1,5-a]pyrimidina-3(3,2)-pyridina-2(2,1)-bicyclo[3.1.0]hexana-cyclononaphan]-9′-one]		IC50 [2]: 1 nM
CC1(C)CNC(=O)c2cnn3ccc(nc23)N2CC[C@H]3C[C@]32c2cc(F)cnc2OC1 [Example 80, (1^3E,1^4E,2^1R,2^5S)-3^5-fluoro-6,6-dimethyl-4-oxa-2^2,8-diaza-1(5,3)-pyrazolo[1,5-a] pyrimidina-3(3,2)-pyridina-2(2,1)-bicyclo [3.1.0]hexanacyclononaphan-9-one]		IC50 [2]: 4 nM
O=C1NCC(F)(F)COc2ncc(F)cc2[C@@]23C[C@@H]2CCN3c2ccn3ncc1c3n2 [Example 81, (1^3E,1^4E,2^1R,2^5S)-3^5,6,6-trifluoro-4-oxa-2^2,8-diaza-1(5,3)-pyrazolo[1,5-a]pyrimidina-3(3,2)-pyridina-2(2,1)-bicyclo[3.1.0] hexanacyclononaphan-9-one]		IC50 [2]: 1 nM
